Assay results: patent US6919425B2, “Isolation of a cell-specific internalizing peptide that infiltrates tumor tissue for targeted drug delivery” (Board of Regents, The University of Texas System, priority 2000, dated 2005)
“Also recorded” adds a separate entry of the source. One block for each compound: values may come before it. Starred links: 1 amine or outer side, 2 acyl side, 3 side chain; linkers in the order of their positions; H or OH if unused. Positions of bridges follow the written chain, without caps; N, C: chain ends. Non-standard residues stand in square brackets, D forms with d. Residues, ends and D or L forms follow the SMILES beside them. Chains are numbered I, II in the order given. Actinocin(9to1) = Cc1c2oc3c(C)ccc(C(=O)[*:1])c3nc-2c(C(=O)[*:2])c(N)c1=O; NMeV = CN[C@H](C(=O)O)C(C)C; Sar = CNCC(=O)O

Columns and labels:
[1] = cited from earlier work
[2] = Toxicity, immunogenicity and stability in HN-1 injected mice; type: in vivo
[3] = mouse, in vivo; cited from earlier work

Compound: CC[C@]1(O)C[C@H]2CN(CCc3c([nH]c4ccccc34)[C@@](C(=O)OC)(c3cc4c(cc3OC)N(C=O)[C@H]3[C@@](O)(C(=O)OC)[C@H](OC(C)=O)[C@]5(CC)C=CCN6CC[C@]43[C@@H]65)C2)C1 [Vincristine]
terminal half-life of clearance from the plasma ([1]; multiphasic): about 24 hours

Compound: O=NN(CCCl)C(=O)NC1CCCCC1 [Lomustine, 1-(2-chloro-ethyl)-3-cyclohexyl-1nitrosourea]
tissue levels relative to plasma levels ([1]; in vivo, iv): comparable

Compound: CC[C@]1(O)C[C@@H]2CN(CCc3c([nH]c4ccccc34)[C@@](C(=O)OC)(c3cc4c(cc3OC)N(C)[C@H]3[C@@](O)(C(=O)OC)[C@H](OC(C)=O)[C@]5(CC)C=CCN6CC[C@]43[C@@H]65)C2)C1 [Vinblastine]
dose excreted / detected intact in the urine ([1]; in vivo): Approximately 15%
half-life of disappearance from plasma after distribution (first of two) ([1]; intravenous injection): approximately 1 hours
half-life of disappearance from plasma after distribution (second of two) ([1]; intravenous injection): ~20 h

Compound: CC[C@H](C)[C@H](NC(=O)[C@H](CC(N)=O)NC(=O)[C@H](CC(C)C)NC(=O)[C@@H]1CCCN1C(=O)[C@H](CO)NC(=O)[C@@H](N)[C@@H](C)O)C(=O)N[C@@H](Cc1c[nH]cn1)C(=O)N[C@@H](CC(N)=O)C(=O)NCC(=O)N[C@@H](CCC(N)=O)C(=O)N[C@@H](CCCCN)C(=O)N[C@@H](CC(C)C)C(N)=O [HN-1] (H-TSPLNIHNGQKL-NH2; N-terminus and C-terminus assumed)
toxicity ([2]; histology of organs of injected mice): no histological evidence of organotoxicity; also recorded: nontoxic
immunogenicity ([2]; mouse, in vivo): nonimmunogenic
protection of cargo during transit ([2]; mouse, in vivo): protects its “cargo” during transit; also recorded: protects its cargo during transit
stability in vivo ([2]; shown by detecting intact peptide in blood 24 h after injection): stable in vivo

Compound: Bleomycin
concentrations in hematopoietic tissue / bone marrow [3]: low concentrations
concentrations in skin, lungs, kidneys, peritoneum and lymphatics [3]: high concentrations

Compound: Cc1c2oc3c(C)ccc(C(=O)N[C@@H]4C(=O)N[C@H](C(C)C)C(=O)N5CCC[C@H]5C(=O)N(C)CC(=O)N(C)[C@@H](C(C)C)C(=O)O[C@@H]4C)c3nc-2c(C(=O)N[C@@H]2C(=O)N[C@H](C(C)C)C(=O)N3CCC[C@H]3C(=O)N(C)CC(=O)N(C)[C@@H](C(C)C)C(=O)O[C@@H]2C)c(N)c1=O [Actinomycin D] (I: T[dV]P[Sar][NMeV] / II: T[dV]P[Sar][NMeV]; ester I:1-I:C, II:1-II:C; linker I:N-II:N via Actinocin(9to1))
dose excreted / detected intact in the urine ([1]; in vivo): 10%

permeability of the dyes themselves (MDA177Tu cells): impermeable
Compound: O=C1OC2(c3ccc(O)cc3Oc3cc(O)ccc32)c2ccccc21 [fluorescein]
